From PubChem BioAssay (NCI)
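Five compound concentrations were applied to cells in 96-well plates for 48 hours; endpoints were derived by simple linear interpolation of the resulting dose-response curve. Definition used: TGI = concentration required for complete inhibition of growth.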

Assays:
Experiment in all cases: NCI tumour cell line growth inhibition, 48 h
786-0 renal = tested on: 786-0 renal
A549 NSCLC = tested on: A549 NSCLC
ACHN renal = tested on: ACHN renal
CAKI-1 renal = tested on: CAKI-1 renal
CCRF-CEM leukemia = tested on: CCRF-CEM leukemia
COLO 205 colon = tested on: COLO 205 colon
DLD-1 colon = tested on: DLD-1 colon
DMS 114 small cell lung = tested on: DMS 114 small cell lung
DMS 273 small cell lung = tested on: DMS 273 small cell lung
EKVX NSCLC = tested on: EKVX NSCLC
HCC-2998 colon = tested on: HCC-2998 colon
HCT-116 colon = tested on: HCT-116 colon
HCT-15 colon = tested on: HCT-15 colon
HL-60(TB) leukemia = tested on: HL-60(TB) leukemia
HOP-18 NSCLC = tested on: HOP-18 NSCLC
HOP-62 NSCLC = tested on: HOP-62 NSCLC
HOP-92 NSCLC = tested on: HOP-92 NSCLC
HT29 colon = tested on: HT29 colon
IGROV1 ovarian = tested on: IGROV1 ovarian
K-562 leukemia = tested on: K-562 leukemia
KM12 colon = tested on: KM12 colon
KM20L2 colon = tested on: KM20L2 colon
LOX IMVI melanoma = tested on: LOX IMVI melanoma
LXFL 529 NSCLC = tested on: LXFL 529 NSCLC
M14 melanoma = tested on: M14 melanoma
M19-MEL melanoma = tested on: M19-MEL melanoma
MALME-3M melanoma = tested on: MALME-3M melanoma
MOLT-4 leukemia = tested on: MOLT-4 leukemia
NCI-H226 lung = tested on: NCI-H226 lung
NCI-H460 lung = tested on: NCI-H460 lung
OVCAR-3 ovarian = tested on: OVCAR-3 ovarian
OVCAR-4 ovarian = tested on: OVCAR-4 ovarian
OVCAR-5 ovarian = tested on: OVCAR-5 ovarian
OVCAR-8 ovarian = tested on: OVCAR-8 ovarian
RPMI-8226 leukemia = tested on: RPMI-8226 leukemia
RXF 393 renal = tested on: RXF 393 renal
SF-295 CNS = tested on: SF-295 CNS
SK-MEL-2 melanoma = tested on: SK-MEL-2 melanoma
SK-MEL-28 melanoma = tested on: SK-MEL-28 melanoma
SK-MEL-5 melanoma = tested on: SK-MEL-5 melanoma
SK-OV-3 ovarian = tested on: SK-OV-3 ovarian
SN12C renal = tested on: SN12C renal
SNB-19 CNS = tested on: SNB-19 CNS
SNB-75 CNS = tested on: SNB-75 CNS
SNB-78 CNS = tested on: SNB-78 CNS
SW-620 colon = tested on: SW-620 colon
TK-10 renal = tested on: TK-10 renal
U251 CNS = tested on: U251 CNS
UACC-257 melanoma = tested on: UACC-257 melanoma
UACC-62 melanoma = tested on: UACC-62 melanoma
UO-31 renal = tested on: UO-31 renal
XF 498 CNS = tested on: XF 498 CNS
NCI-H23 lung = tested on: NCI-H23 lung
SF-268 CNS = tested on: SF-268 CNS

CN[C@H](C)[C@@H](OC)c1ccccc1
TGI (786-0 renal): > 100 µM
TGI (A549 NSCLC): > 100 µM
TGI (ACHN renal): > 100 µM
TGI (CAKI-1 renal): > 100 µM
TGI (CCRF-CEM leukemia): > 100 µM
TGI (COLO 205 colon): > 100 µM
TGI (DLD-1 colon): > 100 µM
TGI (DMS 114 small cell lung): > 100 µM
TGI (DMS 273 small cell lung): > 100 µM
TGI (EKVX NSCLC): > 100 µM
TGI (HCC-2998 colon): > 100 µM
TGI (HCT-116 colon): > 100 µM
TGI (HCT-15 colon): > 100 µM
TGI (HL-60(TB) leukemia): > 100 µM
TGI (HOP-18 NSCLC): > 100 µM
TGI (HOP-62 NSCLC): > 100 µM
TGI (HOP-92 NSCLC): > 100 µM
TGI (HT29 colon): > 100 µM
TGI (IGROV1 ovarian): > 100 µM
TGI (K-562 leukemia): > 100 µM
TGI (KM12 colon): > 100 µM
TGI (KM20L2 colon): > 100 µM
TGI (LOX IMVI melanoma): > 100 µM
TGI (LXFL 529 NSCLC): > 100 µM
TGI (M14 melanoma): > 100 µM
TGI (M19-MEL melanoma): > 100 µM
TGI (MALME-3M melanoma): > 100 µM
TGI (MOLT-4 leukemia): > 100 µM
TGI (NCI-H226 lung): > 100 µM
TGI (NCI-H460 lung): > 100 µM
TGI (OVCAR-3 ovarian): > 100 µM
TGI (OVCAR-4 ovarian): > 100 µM
TGI (OVCAR-5 ovarian): > 100 µM
TGI (OVCAR-8 ovarian): > 100 µM
TGI (RPMI-8226 leukemia): > 100 µM
TGI (RXF 393 renal): > 100 µM
TGI (SF-295 CNS): > 100 µM
TGI (SK-MEL-2 melanoma): > 100 µM
TGI (SK-MEL-28 melanoma): > 100 µM
TGI (SK-MEL-5 melanoma): > 100 µM
TGI (SK-OV-3 ovarian): > 100 µM
TGI (SN12C renal): > 100 µM
TGI (SNB-19 CNS): > 100 µM
TGI (SNB-75 CNS): > 100 µM
TGI (SNB-78 CNS): > 100 µM
TGI (SW-620 colon): > 100 µM
TGI (TK-10 renal): > 100 µM
TGI (U251 CNS): > 100 µM
TGI (UACC-257 melanoma): > 100 µM
TGI (UACC-62 melanoma): > 100 µM
TGI (UO-31 renal): > 100 µM
TGI (XF 498 CNS): > 100 µM

O=C(/C=C/c1ccccc1F)c1ccc([N+](=O)[O-])cc1
TGI (786-0 renal): > 100 µM
TGI (A549 NSCLC): > 100 µM
TGI (ACHN renal): > 100 µM
TGI (CAKI-1 renal): 85.4 µM
TGI (COLO 205 colon): > 100 µM
TGI (DLD-1 colon): 39.1 µM
TGI (DMS 114 small cell lung): 44 µM
TGI (DMS 273 small cell lung): > 100 µM
TGI (EKVX NSCLC): > 100 µM
TGI (HCC-2998 colon): 30.3 µM
TGI (HCT-15 colon): 43.8 µM
TGI (HOP-18 NSCLC): > 100 µM
TGI (HOP-62 NSCLC): > 100 µM
TGI (HOP-92 NSCLC): 45.5 µM
TGI (HT29 colon): 39.9 µM
TGI (IGROV1 ovarian): 63.9 µM
TGI (K-562 leukemia): 34.8 µM
TGI (KM20L2 colon): > 100 µM
TGI (LOX IMVI melanoma): 15.5 µM
TGI (LXFL 529 NSCLC): 40.7 µM
TGI (M14 melanoma): 72.6 µM
TGI (M19-MEL melanoma): 50.5 µM
TGI (MALME-3M melanoma): 70 µM
TGI (NCI-H23 lung): > 100 µM
TGI (NCI-H460 lung): 93 µM
TGI (OVCAR-3 ovarian): 77.9 µM
TGI (OVCAR-4 ovarian): 89.7 µM
TGI (OVCAR-8 ovarian): 73.5 µM
TGI (RXF 393 renal): 49.8 µM
TGI (SF-268 CNS): > 100 µM
TGI (SF-295 CNS): 75.6 µM
TGI (SK-MEL-28 melanoma): 43.2 µM
TGI (SK-OV-3 ovarian): > 100 µM
TGI (SN12C renal): > 100 µM
TGI (SNB-75 CNS): 42.6 µM
TGI (SNB-78 CNS): > 100 µM
TGI (SW-620 colon): 84 µM
TGI (TK-10 renal): > 100 µM
TGI (U251 CNS): 31.1 µM
TGI (UACC-62 melanoma): 81.2 µM
TGI (UO-31 renal): 39.8 µM
TGI (XF 498 CNS): 58.9 µM
